Our source for the EC50, AC50 and IC50 values is ChEMBL document CHEMBL1201862, “PubChem BioAssay data set” (2004).

Series [1] in a line: Luminescence Cell-Based Dose Response HTS to Identify Activators of Luciferase Translation or Activity in H4 […] Cells. [Related pubchem assays: 1829 (Project Summary), 1814 (Primary HTS)]. Format: functional.
Series [2] is described as follows: Luminescence Cell-Based Dose Confirmation HTS to Identify Activators of 5'UTR Stem-Loop Driven Alpha-Synuclein mRNA Translation in H4 Neuroglioblastoma Cells. [Related pubchem assays: 1829 (Project Summary), 1814 (Primary HTS)]. The class given is functional.
Series [3] has as its system H4. Description: Luminescence Cell-Based Dose Response HTS to Identify Activators of 5'UTR Stem-Loop Driven Prion Protein mRNA Translation in H4 Neuroglioblastoma Cells. [Related pubchem assays: 1829 (Project Summary), 1814 (Primary HTS)]. The class given is functional. The conditions noted are these: Homo sapiens.
For series [4], the target named is T1, Cytochrome P450 3A4 (Homo sapiens, UniProt P08684).
T1 sequence (P08684 whole entry): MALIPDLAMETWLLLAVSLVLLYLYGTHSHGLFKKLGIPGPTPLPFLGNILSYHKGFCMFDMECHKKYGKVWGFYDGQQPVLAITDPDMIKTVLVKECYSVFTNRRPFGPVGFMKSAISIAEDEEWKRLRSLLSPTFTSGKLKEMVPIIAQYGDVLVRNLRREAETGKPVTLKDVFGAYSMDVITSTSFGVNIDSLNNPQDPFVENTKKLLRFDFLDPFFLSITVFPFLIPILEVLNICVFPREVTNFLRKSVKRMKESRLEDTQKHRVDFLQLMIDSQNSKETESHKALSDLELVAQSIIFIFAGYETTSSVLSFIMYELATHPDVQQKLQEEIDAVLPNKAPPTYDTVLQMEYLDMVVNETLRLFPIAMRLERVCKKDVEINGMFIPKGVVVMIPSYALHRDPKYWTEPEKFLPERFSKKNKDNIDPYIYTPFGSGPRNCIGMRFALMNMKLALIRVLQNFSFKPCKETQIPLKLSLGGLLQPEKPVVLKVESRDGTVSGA
Series [5] deals with Cytochrome P450 2C9 (Homo sapiens, UniProt P11712).
Sequence of Cytochrome P450 2C9 (P11712 whole entry): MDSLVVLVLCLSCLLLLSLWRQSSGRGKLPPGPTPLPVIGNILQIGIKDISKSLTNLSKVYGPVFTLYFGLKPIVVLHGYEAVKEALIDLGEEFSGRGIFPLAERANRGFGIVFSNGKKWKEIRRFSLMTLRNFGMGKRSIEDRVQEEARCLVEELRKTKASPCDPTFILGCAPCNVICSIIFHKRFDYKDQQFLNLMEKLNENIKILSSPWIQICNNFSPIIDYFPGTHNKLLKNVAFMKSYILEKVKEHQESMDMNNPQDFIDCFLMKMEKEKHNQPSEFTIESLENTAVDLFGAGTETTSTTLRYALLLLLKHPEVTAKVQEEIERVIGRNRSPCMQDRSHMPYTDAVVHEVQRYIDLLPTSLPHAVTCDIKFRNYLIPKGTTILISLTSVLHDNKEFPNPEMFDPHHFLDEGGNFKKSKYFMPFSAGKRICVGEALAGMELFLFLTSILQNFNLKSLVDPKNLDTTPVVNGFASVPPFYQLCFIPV
The target in series [6] is Cytochrome P450 2C19 (Homo sapiens, UniProt P33261). Description: Cytochrome panel assay with activity outcomes. Panel member name: p450-cyp2c19 Compounds with AC50 equal or less than 10 uM are considered active. The class given is functional. The conditions noted are these: read-out: AC50.
Sequence of Cytochrome P450 2C19 (P33261 whole entry): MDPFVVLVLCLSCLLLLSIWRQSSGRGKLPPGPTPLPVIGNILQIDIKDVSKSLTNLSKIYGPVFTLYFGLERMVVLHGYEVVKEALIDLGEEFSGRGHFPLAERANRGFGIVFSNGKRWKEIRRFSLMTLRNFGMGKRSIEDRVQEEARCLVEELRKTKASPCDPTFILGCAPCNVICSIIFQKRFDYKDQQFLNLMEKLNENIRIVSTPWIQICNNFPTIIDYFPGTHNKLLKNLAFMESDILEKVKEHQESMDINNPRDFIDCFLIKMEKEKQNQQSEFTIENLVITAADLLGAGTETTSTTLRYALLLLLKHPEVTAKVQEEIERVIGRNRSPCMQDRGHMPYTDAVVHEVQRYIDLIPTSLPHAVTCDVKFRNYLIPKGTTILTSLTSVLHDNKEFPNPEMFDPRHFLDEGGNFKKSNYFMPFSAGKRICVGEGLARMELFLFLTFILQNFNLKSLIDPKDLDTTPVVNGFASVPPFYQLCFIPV
Series [7] is described as follows: intracellular Trypanosoma cruzi inhibitors in host cells – cell-based, plate reader, cherry-pick samples, set 3, dose response (AID 651818).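 Further: compounds incubated with infected cells for about four days.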 Format: functional.
Series [8] addresses T1, Cytochrome P450 3A4. The conditions noted are these: Potency.
Series [9] can be described thus: cells. The class given is functional, cell-based.
A short description of series [10]: cells. The class given is functional, cell-based. The source holds these as a separate data set.
In series [11] the target is T2, Microphthalmia-associated transcription factor (Homo sapiens, UniProt O75030).
T2 sequence (O75030 whole entry): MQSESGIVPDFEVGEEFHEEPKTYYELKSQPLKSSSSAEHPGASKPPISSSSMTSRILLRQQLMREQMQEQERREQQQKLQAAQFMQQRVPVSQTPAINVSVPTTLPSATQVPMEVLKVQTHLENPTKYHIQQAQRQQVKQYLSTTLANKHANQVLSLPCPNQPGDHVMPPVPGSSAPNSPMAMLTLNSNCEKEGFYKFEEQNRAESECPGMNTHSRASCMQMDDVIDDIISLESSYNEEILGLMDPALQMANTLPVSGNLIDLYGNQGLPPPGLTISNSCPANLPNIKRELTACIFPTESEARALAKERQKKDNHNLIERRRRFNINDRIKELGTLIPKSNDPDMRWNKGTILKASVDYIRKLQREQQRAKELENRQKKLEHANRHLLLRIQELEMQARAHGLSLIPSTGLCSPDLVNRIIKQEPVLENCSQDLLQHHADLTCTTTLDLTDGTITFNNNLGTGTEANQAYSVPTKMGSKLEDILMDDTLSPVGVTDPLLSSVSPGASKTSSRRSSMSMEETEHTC
The experiment in a line: reducers of TRPM1 reporter luminescence, concentration series – cell-based, SK-MEL-5, cherry-picked, set 3, MITF inhibitor project, dose response (AID 493073).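 Further: SK-MEL-5 melanoma cells with luciferase driven by the MITF target TRPM1 promoter.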 Format: functional.

The nature of series [12]: HEK-293T viability loss after treatment – luminescence, T-cell screen hits, cytotoxicity control for TCR NF-kB inhibitor project, dose response (AID 489026).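 Further: cells exposed to compound about 14 hours before the viability readout.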 Format: functional, cell-based.
Series [13] is described as follows: NIH-3T3 fibroblast cytotoxicity, dose response, cytotoxicity control, cell-based, fluorescence, Alamar Blue, secondary assay (AID 2327).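 Further: NIH-3T3 mouse fibroblasts cultured with fluconazole at 8 µg/mL.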 The class given is functional.
The nature of series [14]: fluconazole-exposed Candida albicans growth modulators – fluorescence, retest, confirmation (AID 2467). The class given is functional, cell-based.

Active and inactive are the calls of the source.

On to `COC(=O)c1c(C)[nH]c(C(=O)OCc2ccc(F)cc2)c1C`, for which the EC50 is 23.8 µM (active) in series [1], 0.115 µM (active) in [2] and 9.55 µM (active) in series [3].

Turning to `Cc1c(Cl)cccc1NC(=O)C[C@H]1Sc2ccccc2NC1=O`, the figures for the AC50 in series [4], in [5] and in [6] were 3.98 µM (inconclusive), “inconclusive” and 3.16 µM (inconclusive), respectively. Turning to `CN1C(=O)/C(=C(/C#N)c2nc3ccccc3[nH]2)c2ccccc21`, the AC50 result in series [5] was “inconclusive”; in series [6], 11.2 µM (inconclusive). With `C[C@@H]1CCCCO[C@@H](CN(C)Cc2ccc(C(F)(F)F)cc2)[C@@H](C)CN([C@H](C)CO)C(=O)c2cc(NC(=O)Nc3ccccc3)ccc2O1`, in [7], the AC50 is 5.35 µM (active). With `CCN(CC)CCCC(C)n1c(-c2ccccc2)nc2c(N3CCOCC3)nc(C)nc21` (centres undefined), the AC50 in series [8] was 15.8 µM (inconclusive). With `O=C(NCC1CCCO1)c1cc(-c2ccccc2)on1` (centres undefined), the EC50 in series [1] was 35.5 µM (active); in series [9], 17.2 µM (active); in series [10], > 350 µM (not active); in series [2] it was 11.6 µM (active); in [3], > 120 µM (not active). As for `N#Cc1nn(-c2c(Cl)cc(C(F)(F)F)cc2Cl)c(N)c1[S+]([O-])C(F)(F)F` (centres undefined) [FIPRONIL], the AC50 in [8] is 25.1 µM (inconclusive). In the case of `Cn1c(-c2ccc(-c3ccccc3)cc2)cnc1S`, the results for the EC50 in series [1], in series [2] and in series [3] were 7.75 µM (active), 7.14 µM (active) and 15.6 µM (active), respectively.

Take `Cc1nc(Sc2nnnn2C)c2c3c(sc2n1)CCC3`: in [11], the AC50 is 4.98 µM (active). The IC50 in series [12] was > 80 µM (inactive).

On to `COC(=O)c1cccc(C23CC4(C2)[C@H](CN(Cc2ccc(C(F)(F)F)cc2)[C@@H]4c2ccccc2)C3c2ccc(Cl)nc2)c1` (some centres undefined), for which, in [8], the AC50 was 3.98 µM (inconclusive). The same measure, in the same setting: for `COC1C=CO[C@@]2(C)Oc3c(C)c(O)c4c(O)c(c5c(nc6cc(C)ccn65)c4c3C2=O)NC(=O)/C(C)=C\C=CC(C)C(O)[C@@H](C)C(O)C(C)[C@@H](OC(C)=O)C1C` (some centres undefined) the value was 7.94 µM (inconclusive). Turning to `C[C@@H]1CN([C@@H](C)CO)C(=O)c2cccc(NC(=O)CCCCCC(=O)Nc3ccccc3N)c2O[C@H]1CN(C)CC1CC1`, the AC50 in series [7] was 4.62 µM (active).

For the compound `COc1ccc(NS(=O)(=O)c2cc(NC(=O)CNC(=O)c3cccc(OC)c3)ccc2C)cc1`, the AC50 in series [11] is 11 µM (active). Consider `CCCn1c(-c2ccc(F)cc2)nc2c(NCCN(C(C)C)C(C)C)nc(C)nc21`, for which the AC50 in [8] is 10 µM (inconclusive). For `C[C@@H]1CN([C@H](C)CO)C(=O)Cc2cc(NC(=O)CCC(F)(F)F)ccc2O[C@@H]1CN(C)Cc1ccc(Oc2ccccc2)cc1`, the AC50 in series [7] was 2.81 µM (active). In the case of `Cc1scc(C(=O)N/N=C/c2ccc([N+](=O)[O-])o2)c1C`, the EC50 in series [13] is > 150 µM (inactive); in series [14], 1.48 µM (active). Besides, the AC50 in series [11] was 2.19 µM (active).

For the compound `COc1cc(C(=O)OCC(=O)Nc2cc(C)on2)ccc1OCc1ccccc1Cl`, the concentration giving a half-maximal response (EC50) in series [1] is 4.54 µM (active); in series [2] it was 7.95 µM (active); in series [3] it was 20.6 µM (active). Turning to `C[C@@H]1CN([C@H](C)CO)C(=O)Cc2cc(NC(=O)Nc3cccc4ccccc34)ccc2O[C@H]1CN(C)Cc1ccccc1`, in [7], the AC50 is 6.25 µM (active). In the case of `C[C@@H]1CN([C@H](C)CO)C(=O)Cc2cc(NS(=O)(=O)c3ccc(F)cc3)ccc2O[C@H]1CN(C)Cc1ccc(Cl)c(Cl)c1`, the AC50 in series [7] was 2.26 µM (active). In the case of `COc1cccc(C(=O)Nc2ccc(N3CCN(C(=O)c4ccco4)CC3)cc2)c1`, the results for the EC50 in [1], in [2] and in series [3] were 8.46 µM (active), > 120 µM (not active) and > 120 µM (not active), respectively. With `O=C(Nc1ccccc1)O[C@@H]1C[C@H]2CCC(=O)N3CC[C@@H](C1)[C@@H]23`, the EC50 in series [1] was 40.9 µM (active); in series [2], 0.39 µM (active); in series [3], 53.9 µM (active). On to `C[C@@H]1CCCCO[C@@H](CN(C)C(=O)Nc2ccc(C(F)(F)F)cc2)[C@@H](C)CN([C@H](C)CO)C(=O)c2cc(NC(=O)Nc3ccc4c(c3)OCO4)ccc2O1`, for which, in series [7], the AC50 is 4.09 µM (active). Consider `S=c1ccss1` [DITHIOLETHIONE], for which, in series [8], the concentration at half-maximal activity (AC50) was 10 µM (inconclusive). With `CCOc1c2ccc(C(=O)NC3CCCc4ccccc43)cc2nn1C` (centres undefined), the concentration at half-maximal activity (AC50) result in [5] is recorded as “inconclusive”. `CCN1C(=O)C(O)(C2COC(C)(C)CC2=O)c2ccccc21` (centres undefined): the AC50 result in [5] was “inconclusive”; in series [6], 25.1 µM (inconclusive). As to `Cc1cc(NC(=O)COC(=O)c2ccc(S(=O)(=O)N3CCCc4ccccc43)cc2)no1`, the IC50 in [12] is > 80 µM (inactive). As to `C[C@@H]1CCCCO[C@@H](CN(C)C(=O)c2ccccc2)[C@@H](C)CN([C@H](C)CO)C(=O)c2cc(NC(=O)Nc3ccc(C(F)(F)F)cc3)ccc2O1`, the AC50 in [7] was 6.48 µM (active).

In the case of `C#CCCCCCCCCCCCC(O)CC(O)COC(C)=O` (centres undefined) [AVOCADYNE ACETATE], the AC50 in series [8] is 39.8 µM (inconclusive).
